Results on six compounds are retold here after patent US5418160A, “Cloned cell line expressing rat β3A adrenergic receptor” (The United States as represented by the Secretary of the …, priority 1991, dated 1995).

Where two headings read alike, the source gives them in different places.

By EC50 is commonly meant the concentration that produces a half-maximal response. A word on the Kd: it is a measure of binding affinity in units of concentration. Usually inhibition stands for how much of the control response was suppressed.

One test relates to brown adipocytes. As to conditions: Arch et al., read-out: EC50 for increases in lipolysis; cited from earlier work.
Another test concerns the target β3 -adrenergic receptor. As to conditions: read-out: KD reported for [125I]-ICYP binding to the β3-adrenergic receptor; Emorine et al.; cited from earlier work.
The target of a further test is β1 -adrenergic receptors. As to conditions: read-out: KD for [125I]-ICYP binding to β1-adrenergic receptors; cited from earlier work.
A further test concerns the target β2 -adrenergic receptors. As to conditions: read-out: KD for [125I]-ICYP binding to β2-adrenergic receptors; cited from earlier work.
For test [1], the target named is T1, fat cell β receptor (β3A -adrenergic receptor) (Rattus norvegicus, UniProt P26255).
T1 construct: expressed in transfected cells
Briefly: Inhibition of BRL 37344-induced cAMP accumulation in transfected CHO cells. The format is cell-based. As to conditions: read-out: inhibition of BRL 37344-induced cAMP accumulation. The text has this:
Using a protocol for cotransfection of CHO cells (a 1.5 kb fragment was excised from pBluescript using Saci (present in the multiple cloning site of the vector) and BamHI and inserted into the Sac/BamH/sites of PSVL (Pharmacie). CHO-K1 cells were cotransfected with pSVL and pMSVneo (neomycin resistance plasmid) F. Z. Chung, C. D. Wang, P. C. Potter, J. C. Venter and C. M. Fraser, J. Biol. Chem. 263, 4052 (1988) using the CaPO4 precipitation technique. Stable transfectants were obtained by growth of the cells in culture medium containing Geneticin (500 μg/ml); colonies derived from single cells were isolated and expanded.
(In general: Changes in cAMP serve as a functional read-out for many G protein-coupled receptors.)

T1 sequence (P26255 whole entry): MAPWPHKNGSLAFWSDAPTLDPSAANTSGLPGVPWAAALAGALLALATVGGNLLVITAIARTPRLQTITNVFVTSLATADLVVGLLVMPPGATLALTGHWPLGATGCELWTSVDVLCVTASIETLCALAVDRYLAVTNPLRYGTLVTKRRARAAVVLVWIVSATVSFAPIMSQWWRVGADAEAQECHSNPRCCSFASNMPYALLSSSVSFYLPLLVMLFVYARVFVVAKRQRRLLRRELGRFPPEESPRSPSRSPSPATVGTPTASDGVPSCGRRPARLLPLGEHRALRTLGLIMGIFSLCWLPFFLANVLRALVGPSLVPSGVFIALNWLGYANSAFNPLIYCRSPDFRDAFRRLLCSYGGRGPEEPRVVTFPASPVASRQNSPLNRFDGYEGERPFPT

As to `CC(Cc1ccc(OCC(=O)O)cc1)NCC(O)c1cccc(Cl)c1` (centres unmarked) [BRL 37344], in the test with brown adipocytes, the EC50 was 1.7 nM.

For `CC(C)(C)NCC(O)COc1cccc2[nH]c(C#N)c([125I])c12` (centres unmarked) [[^125 1]-ICYP, [^125 1]-iodocyanopindolol], the figures for the Kd at β3 -adrenergic receptor, on β1 -adrenergic receptors and at β2 -adrenergic receptors were 0.5 nM, 0.011 nM and 0.03 nM, respectively.

In the case of `C=CCc1ccccc1OCC(O)CNC(C)C` (centres unmarked) [alprenolol], the inhibition at 100 µM in test [1] (antagonist at 10^-4 M, transfected CHO cells) came out at 52%.

As to `CC(C)NCC(O)COc1ccc(CC(N)=O)cc1` (centres unmarked) [atenolol], the inhibition at 100 µM in test [1] (CHO) turned out to be 30%.

As to `CC(C)NCC(O)c1ccc(O)c(O)c1` (centres unmarked) [isoproterenol], the EC50 in the test on brown adipocytes is 8 nM.

Regarding `COCCc1ccc(OCC(O)CNC(C)C)cc1` (centres unmarked) [metoprolol], in test [1] (CHO), the inhibition at 100 µM was found to be 70%.
